Results from a melting point compilation (Tetko et al.; mined from patent text by program, amines drawn as free bases though some values may be those of a salt).

Structure (SMILES) | melting point
CCOC(=O)Cc1cccc(N)c1 | 135 °C
CSC[C@H](NCc1ccccc1N)C(=O)O | 193 °C
CCCCCCCCCCCCCCOc1ccc(CCN(C(C)=O)c2cccc(Cc3nccs3)c2)cc1 | 46 to 50 °C
CN1C(CCCCCBr)Nc2cc(Cl)c(S(=O)(=O)NCc3ccccc3)cc2S1(=O)=O (stereo not given) | 141 to 142 °C
CC(NC(=O)C(=O)c1c[nH]c2ccc(Br)cc12)c1c[nH]c2ccc(Br)cc12 (stereo not given) | 141 °C
CCc1noc(-c2cn(-c3nccs3)cn2)n1 | 147 to 148 °C
Cn1cc([N+](=O)[O-])c(C(=O)NC2CCCC2)n1 | 176 to 177 °C
CC(C)CCSCC[C@H](O)[C@@H](N)CC(C)C | 64 to 65 °C
COc1ccc(CC(=O)NC(NC(=NC#N)c2cccc3ncccc23)C(C)(C)C)cc1OC (stereo not given) | 203 to 205 °C
O=C(NC(CS)Cc1ccccc1)N1CCOCC1 (single isomer, unassigned; (+)) | 84 °C
CN1C(=O)CCC2(C)C3CCC4(C)C(OCC(=O)O)CCC4C3CCC12 (stereo not given) | 180 to 184 °C
CC(=O)c1ccc(C(=O)N(C)C)o1 | 101 to 104 °C
COc1ccc(N=Nc2ccc(O)c(C(=O)Nc3ccc(OC)c(-c4nn(C(C)=O)c5cc(C)nn45)c3)c2)cc1 | 282 to 283 °C
CN(CCN(C)c1ccc([N+](=O)[O-])cc1)c1ccncc1 | 126 to 127 °C
CCc1ccc2c(c1)C=Cc1cc(C)ccc1C2c1cn(Cc2ccc(C(=O)Nc3nnn[nH]3)o2)c(=O)[nH]c1=S (stereo not given) | 260 °C
C=CCc1cc2c(c(CC=C)c1O)CCC(=O)N2CCCN1CCN(c2cccc(Cl)c2)CC1 | 118 °C
O=[N+]([O-])c1sccc1-c1ccc(Cl)cc1 | 108 to 110 °C
O=C(NCCO)c1cccc(-c2cccc3c2CN(Cc2cccc(C(F)(F)F)c2)C3=O)c1 | 148 to 149 °C
CCCN1C(=O)C2(c3ccc(N)cc3)CC(c3ccc(N)cc3)(C2)C1=O | 149 to 150 °C
CSC[C@H](NCc1cc(Br)ccc1N)C(=O)O | 228 °C
Cc1nc(C=Cc2nc3ccc(F)cc3c(=O)n2-c2cccnc2C)cs1 | 223 to 224 °C

Structure (SMILES) | melting point
O=C(O)[C@H](Cc1ccc(C(F)(F)F)cc1)[C@@H](O)c1ccoc1 (racemic) | 104 to 105 °C
CN(C)C(=O)CCC(=NNC(N)=S)c1ccccc1 | 173 to 175 °C
CCOC(=O)C(NC(=O)CNC=O)C(=O)OCC | 95 to 96 °C
CCCCc1nc2ccccc2n1Cc1ccc(-c2ccccc2C2SC(=O)NC2=O)cc1 (stereo not given) | 162 to 163 °C
CC1=CC(N)(C(=O)NCCC(C)n2ccnc2)CC=C1 (stereo not given) | 128 to 130 °C
N#CC1=NC(Cl)(Cl)N=C1Cl | 114 to 115 °C
Cc1cc(=O)c(OCc2ccccc2)c(C=O)o1 | 78 to 81 °C
CC(C)(C)c1cc(-c2c[nH]c(S(C)(=O)=O)n2)cc(C(C)(C)C)c1O | 119 to 120 °C
CC(C)(C)OC(=O)NC(CO)C(=O)c1ccccc1 (stereo not given) | 69 to 71 °C
COP(=O)(OC)[C@H](C)NC(=O)[C@H](C)N | 103 to 106 °C
NS(=O)(=O)c1ccc(Nc2ccccc2)c([N+](=O)[O-])c1 | 155 °C
CCCCC(=N)NC(=O)Nc1ccccc1O | 173 to 175 °C
O=C(N[C@H]1CC[C@H](CCN2CCN(c3nccc4c3CCO4)CC2)CC1)c1ccccc1 | 208 °C
C=CCNc1c(C(C)=O)cnc2cn[nH]c12 | 211 to 213 °C
CCOC(=O)C1n2c3ccccc3c3c4c(c5c6ccccc6n(c5c32)CS1(=O)=O)C(=O)NC4=O (stereo not given) | 298 to 300 °C
O=C(O)CCCCCc1ccc(O)c(O)c1 | 109 °C
O=C1c2ccccc2C(=O)N1c1n[nH]c2ccc(O)cc12 | > 270 °C
NC(=O)N(O)CCNC(=O)c1cccc(C(=O)c2ccccc2)c1 | 168 to 170 °C
O=Cc1ncn2cc(Br)sc12 | 200 to 201 °C
FC(F)(F)c1ccc(CN2CC3(COc4ccc(-c5ccncc5)cc43)c3ccccc32)o1 (stereo not given) | 108 to 110 °C
c1ccc(C2OC3(CCNCC3)N3CCCCC23)cc1 (stereo not given) | 169 to 171 °C

Structure (SMILES) | melting point
CCCc1ccccc1OCCCCCOc1coc(C(=O)OC)cc1=O | 49 to 50 °C
COc1ccc(C(=O)Nc2c(Cl)cncc2Cl)c2c1OCC2CC(=O)NCc1ccc(Cl)cc1 (stereo not given) | 283 to 286 °C
COCOc1ccc(CO[Si](C)(C)C(C)(C)C)c2cccc(C)c12 | 42 to 43 °C
CNc1nnc(SCc2ccccn2)s1 | 73 to 75 °C
N#Cc1cc(=O)c2c(o1)c1ccccc1n2-c1ccccc1 | 192 to 193 °C
Cc1ccccc1C(=O)OCC1OC(N2CN(C)C(=O)NC2=O)CC1OC(=O)c1ccccc1C (stereo not given) | 184 to 185 °C
Cc1nn(-c2ccccn2)c2nc3ccccc3c(Cl)c12 | 157 to 159 °C
Cc1cc(O)n2nc(S(=O)(=O)Nc3c(Cl)ccc(C)c3Cl)nc2n1 | 346 to 347 °C
C=C(C)C(=O)c1cn2c(C)c(CC)c(SC)nc2n1 | 136 to 137 °C
CC12CCC(C(=O)O)=CC1=CCC1C2CCC2(C)C(C(=O)c3ccc(O)cc3)CCC12 (stereo not given) | 295 °C
N#Cc1cccc(OCc2ccccc2)c1[N+](=O)[O-] | 94 to 95 °C
CCCCCCCCCCCCCCc1ccc(OC)cc1 | 38 °C
CCCCCCCCCCCCNC(=O)c1cc(-c2cccc(C(F)(F)F)c2)c(OCCO)c(-c2cccc(C(F)(F)F)c2)c1 | 154 to 158 °C
CN(C(=O)c1nnc2ccccc2c1O)c1ccccn1 | 237 to 239 °C
Cc1cccc(-c2cccc(-c3nc(C)cc(Cl)n3)n2)c1 | 105 °C
Nc1ccc(/C=C/c2ccccc2)cc1 | 151 °C
O=CN(O)C(CCCO)CS(=O)(=O)c1ccc(-c2ccc(F)cc2)cc1 (stereo not given) | 143 to 144 °C
CCCC(=O)Nc1cc(Cl)c(O)c(Cl)c1 | 146 to 147 °C
CC(=O)Oc1ccccc1C(=O)NC(O)C(Cl)(Cl)Cl (stereo not given) | 124 to 126 °C
C=Cn1cc(C(=O)O)c(=O)c2cc(F)c(N3CCNCC3)cc21 | 248 to 251 °C

The remaining lines, values ahead:

melting point | Structure (SMILES)
252 to 254 °C | Cc1oc2cc(C3CC(=O)NC(=O)C3)ccc2c1C
163 to 165 °C | COC(=O)C1(O)Cc2cc(Cl)ccc2C1=O (single isomer, unassigned; (+))
224 °C | Cn1c(=O)nc(-c2ccccc2)c2cc(Cl)ccc21
153 to 154 °C | CC(C)(C)OC(=O)N1CCc2ccc(NS(C)(=O)=O)cc2CC1
96 °C | COc1ccc(C2(CNC(=S)NCC(C)C)OCCO2)cc1
80 to 83 °C | COC(=N)N1CCC(c2nn(-c3ccccc3)c3ccccc23)CC1
171 °C | Cc1c(Cc2ccc(C(=O)O)s2)n(S(=O)(=O)c2cccc(C(C)(C)C)c2)c2ccc(C(F)(F)F)cc12
208 °C | Clc1cc2c(nn1)-c1ccccc1OC2
300 to 302 °C | O=C(Nc1ccc(-c2ncc(-c3ccc(NC(=O)C4CCCCCC4)cc3)[nH]2)cc1)c1c(F)c(F)c(F)c(F)c1F
102 to 103 °C | Fc1ccc(COc2ncc(F)c(N=CN3CCCC3)n2)cc1
272 to 277 °C | NC(=O)c1cccc2c3c(cc([N+](=O)[O-])c12)N(C(=O)C(F)(F)F)CC3CCl (stereo not given)
228 to 230 °C | COc1c(F)cc2c(c1F)CC(n1cc[nH]c1=S)CC2 (stereo not given)
244 to 247 °C | O=C(O)c1ccc2c(-c3ccccc3)c([N+](=O)[O-])oc2c1
189 to 190 °C | CCOCc1nc2c(Cl)nc3ccccc3c2n1Cc1cc(-c2ccc(F)cc2)no1
245 to 248 °C | Cn1c(=O)[nH]c(=O)c2c1ncn2Cc1noc(C2CCCCC2)n1
82 °C | CC(C)(C)c1cc2c(c(C(C)(C)C)c1O)CCS2
140 to 146 °C | CC(C)(C)OC(=O)Nc1ccc(-c2ccc(S(=O)(=O)n3ccc(/C=C/C(=O)NOC4CCCCO4)c3)cc2)cn1 (stereo not given)
168 to 169 °C | CNC1(CC2CCCCC2)C(=O)Nc2ccc(Cl)cc21 (stereo not given)
115 to 116 °C | CC1=C(C(=O)OCCN(C)Cc2ccc(Cl)cc2)C(c2cccc([N+](=O)[O-])c2)C(C(=O)OCC2CC2)=C(C)N1 (stereo not given)

melting point | Structure (SMILES)
189 to 191 °C | CC(C)Oc1c(C(=O)Nc2nnn[nH]2)sc2c1CN(C(=O)OC(C)(C)C)CC2
84 to 85 °C | O=C(O)C(=O)c1ccc(SCCOC2CCCCCCC2)cc1
226 to 230 °C | COc1cc(-c2nc(-c3ccc(N(C)C)cc3)c(C)[nH]2)ccc1OP(=O)(O)O
177 to 178 °C | Cc1c(C(=O)Nc2ccc(OCC(C)C)c(C#N)c2)cnn1-c1ccc(F)cc1
91 to 92 °C | C[C@]1(CN2CCC(OCc3ccc(C(F)(F)F)cc3)CC2)Cn2cc([N+](=O)[O-])nc2O1
121 to 122 °C | CC1(C)CN(C(=N)NC=C(C#N)C(=O)N(CC2CC2)c2cccc(C(F)(F)F)c2)C(=O)N1
213 to 215 °C | COC(=O)c1ccc(-c2ccc3nnn(Cc4cc5cccnc5cc4F)c3n2)cc1F
289 to 293 °C | O=C(O)c1cn(C2CC2)c2c(F)c(N3CCC3)c(F)cc2c1=O
168 to 170 °C | COc1ccc(C(=O)N[C@H](C(=O)N2CCC[C@H]2C(=O)N[C@@H](C(C)C)[C@@H](O)C(F)(F)F)C(C)C)cc1
128 to 130 °C | COc1cccc([C@H]2O[C@H](CC(=O)NC(C)CC(=O)O)C(=O)N(CC(C)(C)C)c3ccc(Cl)cc32)c1OC (stereo not given in full)
119 to 120 °C | COc1ccc2c(c1)OCC(c1ccc(C(F)(F)F)cc1)C2c1ccc(OCCN2CCCC2)cc1 (stereo not given)
219 to 221 °C | CCCOc1ccccc1-c1nc(-c2nnn[nH]2)cc(=O)[nH]1
80 °C | CCc1cc(OC)c(N)c2ccccc12
120 to 121 °C | O=S(=O)(c1ccc(Cl)cc1)C(c1ccc(CN2CCOCC2)cn1)c1cc(F)ccc1F (stereo not given)
256 to 257 °C | Cc1cc(Nc2nccc(-c3sc(N)nc3C)n2)ccc1N1CCOCC1
357 to 359 °C | CCOC(=O)N1CCc2[nH]cc3c(=O)n(-c4ccc(Cl)cc4)nc-3c2C1
52 to 53 °C | O=C(CCCCCBr)c1cc2c3c(c1)CCC(=O)N3CCC2
215 °C | CCOC(=O)c1nc(-c2ccc(N3CCOCC3)cc2)[nH]c1-c1ccc(Cl)cc1
81 to 83 °C | CN1C(=O)CC(C)(C)c2cc(C3(C)OCCO3)ccc21
